Reference: patent publication US11021445B2, “Carboxylic acid derivative as AT2R receptor antagonist” (SHANDONG DANHONG PHARMACEUTICAL CO., LTD., priority 2017, dated 2021)
pIC50: −log10 of the molar value.

Target: T1, hAT2 (Homo sapiens, UniProt P50052)
T1 construct: expressed in transfected cells; host or cells: HEK-293
T1 sequence (P50052 1-363): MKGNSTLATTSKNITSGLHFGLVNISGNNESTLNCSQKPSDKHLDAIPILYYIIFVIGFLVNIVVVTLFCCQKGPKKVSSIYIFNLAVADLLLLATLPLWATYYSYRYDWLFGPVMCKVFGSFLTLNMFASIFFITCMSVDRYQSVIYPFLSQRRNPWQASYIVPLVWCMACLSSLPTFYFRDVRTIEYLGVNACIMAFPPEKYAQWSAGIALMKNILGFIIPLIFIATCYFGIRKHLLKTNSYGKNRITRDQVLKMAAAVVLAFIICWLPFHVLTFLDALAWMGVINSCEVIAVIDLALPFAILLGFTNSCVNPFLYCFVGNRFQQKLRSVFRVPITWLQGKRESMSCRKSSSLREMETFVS
Experiment: hAT2 receptor binding assay (SPA, [125I]-Sar1-Ile8-Angiotensin II)
Settings: membrane of HEK-293 cells overexpressing hAT2; 0.1 nM 125I ligand
Procedure: hAT2 Receptor Binding Assay
Protease inhibitor mixture, free of ethylenediaminetetraacetic acid-1 tablets (Roche #11873580001) (50 mL plus one piece)
Experimental Methods and Steps
The reference ligand PD123319 and the test compound were prepared into a 750 μM mother liquor by DMSO; each compound was prepared into a solution of 8 concentration gradients (up to a concentration of 750 μM, 3-fold dilution) and 10 μl of the solution was added to a master of a 384-well plate per well.
The SPA beads were prepared to a mother liquor of 25 mg/ml by the buffer;
The isotope [^125I]-Sar1-Ile8-Angiotensin II was prepared into a mother liquor of 50 μCi/ml by adding pure water.
The cell membrane overexpressing hAT2 in HEK-293 cells was prepared to 2.5 mg/ml by the buffer.
200 nl of compound was aspirated from the mother plate with ECHO to each well of the 384-well test plate. ZPE was added to an equal volume of DMSO. (The concentration of the test compound in the reaction was diluted by 250 times).
A 50 ml membrane solution containing 10 μg/μl of magnetic beads and 0.05 μg/μl of AT2 was prepared, placed on a shaker and uniformly mixed. (100 rpm, 30 min). The test plate finally contained an hAT2 membrane with 1.25 μg/well and magnetic beads with 250 μg/well.
A 3.2 ml membrane liquid mixture was added to the compound test plate by using a Multidrop Combi pipette, and 25 μl was added to each well.
A 0.2 nM solution was prepared with 50 μCi/ml of isotope [^125I]-Sar1-Ile8-Angiotensin II mother liquor by the buffer, and 0.2 nM of ^125I was added to the compound test plate with a Multidrop Combi pipette. A volume of 25 μl was added to each well. The final concentration of ^125I isotope is 0.1 nM.
The prepared test plate was placed on a shaker overnight at room temperature at 200 rpm.
The test plate was centrifuged with a centrifuge at 1200 rpm for 1 min.
The centrifuged test plate was read with Microbeta.

Q: `COc1ccc2c(c1OCc1ccccc1)C[C@@H](C(=O)O)N(C(=O)[C@H](OC1CCOC1)c1ccccc1)C2` (single isomer, unassigned) [Compound 12] was tested. Which pIC50 did it give?
A: < 5.52

Q: How did the pIC50 turn out when `COc1ccc2c(c1OCc1ccccc1)C[C@@H](C(=O)O)N(C(=O)[C@H](Oc1ccccn1)c1ccccc1)C2` [Compound 22] was run?
A: 5.87

Q: With `COc1ccc2c(c1OCc1ccccc1)C[C@@H](C(=O)O)N(C(=O)[C@@H](O[C@H]1CC[C@H](O)CC1)c1ccccc1)C2` [Compound 65] as the compound, how does the pIC50 read?
A: 6.80

Q: `O=C(O)[C@@H]1Cc2c(ccc(Cl)c2OCc2ccccc2)CN1C(=O)[C@@H](OC1CC(F)(F)C1)c1ccccc1` [Compound 73] was tested. Which pIC50 did it give?
A: 8.43

Q: How did the pIC50 turn out when `COc1ccc2c(c1OCc1ccccc1)C[C@@H](C(=O)O)N(C(=O)C(OC1CCCC1)c1ccccc1)C2` (stereo partly shown) [Compound 47] was run?
A: 7.77

Q: `COc1ccc2c(c1OCc1ccccc1)C[C@@H](C(=O)O)N(C(=O)[C@H](OC1CC3CC3C1)c1ccccc1)C2` (stereo partly shown) [Compound 56] was tested. Which pIC50 did it give?
A: 6.65

Q: How did the pIC50 turn out when `COc1ccc2c(c1OCc1ccccc1)C[C@@H](C(=O)O)N(C(=O)[C@H](Oc1ccc(Cl)cc1)c1ccccc1)C2` [Compound 34] was run?
A: 6.64

Q: With `COc1ccc2c(c1OCc1ccccc1)C[C@@H](C(=O)O)N(C(=O)[C@H](NC(=O)C1CCCC1)c1ccccc1)C2` [Compound 43] as the compound, how does the pIC50 read?
A: < 5.52

Q: With `O=C(O)[C@@H]1Cc2c(ccc(O)c2OCc2ccccc2)CN1C(=O)[C@@H](OC1CCCC1)c1ccccc1` [Compound 118] as the compound, how does the pIC50 read?
A: 7.52

Q: `COc1ccc2c(c1OCc1ccccc1)CC(C(=O)O)N(C(=O)C(OC1CCOCC1)c1ccccc1)C2` (single isomer, unassigned) [Compound 2] was tested. Which pIC50 did it give?
A: 6.07

Q: With `O=C(O)[C@@H]1Cc2c(ccc(Cl)c2OCc2ccccc2)CN1C(=O)[C@@H](O[C@H]1CC[C@@H](O)CC1)c1ccccc1` [Compound 77] as the compound, how does the pIC50 read?
A: 6.06

Q: `CC1(O[C@@H](C(=O)N2Cc3ccc(Cl)c(OCc4ccccc4)c3C[C@H]2C(=O)O)c2ccccc2)CCCC1` [Compound 76] was tested. Which pIC50 did it give?
A: 7.14

Q: How did the pIC50 turn out when `COc1ccc2c(c1OCc1ccccc1)C[C@@H](C(=O)O)N(C(=O)[C@H](O[C@H]1CC[C@@H](O)CC1)c1ccccc1)C2` [Compound 64] was run?
A: 6.43

Q: `Cc1ccc2c(c1OCc1ccccc1)C[C@@H](C(=O)O)N(C(=O)[C@H](OC1(C)CCCC1)c1ccccc1)C2` [Compound 70] was tested. Which pIC50 did it give?
A: 7.18

Q: `N#Cc1ccc2c(c1OCc1ccccc1)C[C@H](C(=O)O)N(C(=O)[C@H](OC1CCCC1)c1ccccc1)C2` [Compound 112] was tested. Which pIC50 did it give?
A: 6.93

Q: `COc1ccc2c(c1OCc1ccccc1)C[C@@H](C(=O)O)N(C(=O)[C@@H](Oc1cccs1)c1ccccc1)C2` [Compound 25] was tested. Which pIC50 did it give?
A: 7.14

Q: With `CC1(O[C@@H](C(=O)N2Cc3cccc(OCc4ccccc4)c3C[C@H]2C(=O)O)c2ccccc2)CCCC1` [Compound 80] as the compound, how does the pIC50 read?
A: 6.49

Q: With `O=C(O)[C@@H]1Cc2c(cccc2OCc2ccccc2)CN1C(=O)[C@H](O[C@H]1CC[C@@H](O)CC1)c1ccccc1` [Compound 82] as the compound, how does the pIC50 read?
A: 7.68

Q: `O=C(O)[C@@H]1Cc2c(ccc(Cl)c2OCc2ccccc2)CN1C(=O)[C@H](OC1CC(F)(F)C1)c1ccccc1` [Compound 74] was tested. Which pIC50 did it give?
A: 6.89

Q: How did the pIC50 turn out when `COc1ccc2c(c1OCc1ccccc1)C[C@@H](C(=O)O)N(C(=O)[C@@H](OC1COC1)c1ccccc1)C2` [Compound 13] was run?
A: 6.81

Q: `COc1ccc2c(c1OCc1ccccc1)C[C@@H](C(=O)O)N(C(=O)[C@H](OCC(F)(F)F)c1ccccc1)C2` [Compound 8] was tested. Which pIC50 did it give?
A: 6.29

Q: With `COc1ccc2c(c1OCc1ccccc1)C[C@@H](C(=O)O)N(C(=O)[C@@H](OC(C)(C)C)c1ccccc1)C2` [Compound 39] as the compound, how does the pIC50 read?
A: 7.73

Q: How did the pIC50 turn out when `COc1ccc2c(c1OCc1ccccc1)C[C@@H](C(=O)O)N(C(=O)[C@@H](Oc1ccccn1)c1ccccc1)C2` [Compound 21] was run?
A: 6.71

Q: With `COc1ccc2c(c1OCc1ccccc1)C[C@@H](C(=O)O)N(C(=O)[C@@H](Oc1ccc3ccccc3c1)c1ccccc1)C2` [Compound 35] as the compound, how does the pIC50 read?
A: 5.91

Q: `COc1ccc2c(c1OCc1ccccc1)C[C@@H](C(=O)O)N(C(=O)[C@H](OC1(C)CCCC1)c1ccccc1)C2` [Compound 58] was tested. Which pIC50 did it give?
A: 6.81

Q: With `Cc1ccc2c(c1OCc1ccccc1)C[C@@H](C(=O)O)N(C(=O)[C@H](O[C@H]1CC[C@@H](O)CC1)c1ccccc1)C2` [Compound 72] as the compound, how does the pIC50 read?
A: 8.28

Q: `COc1ccc2c(c1OCc1ccccc1)C[C@@H](C(=O)O)N(C(=O)[C@@H](OC1CCCC1)c1ccc(F)cc1)C2` [Compound 53] was tested. Which pIC50 did it give?
A: 7.08

Q: `COc1ccc2c(c1OCc1ccccc1)C[C@@H](C(=O)O)N(C(=O)[C@H](OC1CCCC1)c1ccccc1)C2` [Compound 38] was tested. Which pIC50 did it give?
A: 6.16

Q: With `COc1ccc2c(c1OCc1ccccc1)C[C@@H](C(=O)O)N(C(=O)[C@@H](OC1CCCCC1)c1ccccc1)C2` [Compound 44] as the compound, how does the pIC50 read?
A: 8.10

Q: How did the pIC50 turn out when `CC1(O[C@H](C(=O)N2Cc3ccc(Cl)c(OCc4ccccc4)c3C[C@H]2C(=O)O)c2ccccc2)CCCC1` [Compound 75] was run?
A: 8.41

Q: How did the pIC50 turn out when `COc1ccc2c(c1OCc1ccccc1)C[C@@H](C(=O)O)N(C(=O)[C@@H](NC1CCCC1)c1ccccc1)C2` [Compound 40] was run?
A: 8.04

Q: With `Cc1ccc2c(c1OCc1ccccc1)C[C@@H](C(=O)O)N(C(=O)[C@@H](O[C@H]1CC[C@@H](O)CC1)c1ccccc1)C2` [Compound 71] as the compound, how does the pIC50 read?
A: 5.96

Q: How did the pIC50 turn out when `COc1ccc2c(c1OCc1ccccc1)C[C@@H](C(=O)O)N(C(=O)[C@H](OC1CC(F)(F)C1)c1ccccc1)C2` [Compound 52] was run?
A: 6.90

Q: `COc1ccc2c(c1OCc1ccccc1)C[C@@H](C(=O)O)N(C(=O)[C@H](Oc1ccccc1)c1ccccc1)C2` [Compound 20] was tested. Which pIC50 did it give?
A: 6.76

Q: With `Cc1ccc2c(c1OCc1ccccc1)C[C@@H](C(=O)O)N(C(=O)[C@@H](OC1(C)CCCC1)c1ccccc1)C2` [Compound 69] as the compound, how does the pIC50 read?
A: 8.77

Q: With `O=C(O)[C@@H]1Cc2c(cccc2OCc2ccccc2)CN1C(=O)[C@@H](OC1CC(F)(F)C1)c1ccccc1` [Compound 83] as the compound, how does the pIC50 read?
A: 8.49

Q: `N#Cc1ccc2c(c1OCc1ccccc1)C[C@H](C(=O)O)N(C(=O)[C@@H](OC1CCCC1)c1ccccc1)C2` [Compound 110] was tested. Which pIC50 did it give?
A: 6.26

Q: With `COc1ccc2c(c1OCc1ccccc1)CC(C(=O)O)N(C(=O)C(OC1CCOCC1)c1ccccc1)C2` (single isomer, unassigned) [Compound 1] as the compound, how does the pIC50 read?
A: 7.18

Q: `COc1ccc(O[C@H](C(=O)N2Cc3ccc(OC)c(OCc4ccccc4)c3C[C@H]2C(=O)O)c2ccccc2)cc1` [Compound 23] was tested. Which pIC50 did it give?
A: < 5.52

Q: How did the pIC50 turn out when `O=C(O)[C@@H]1Cc2c(cccc2OCc2ccccc2)CN1C(=O)[C@H](O[C@H]1C[C@@H](O)C1)c1ccccc1` [Compound 86] was run?
A: 6.06

Q: With `COc1ccc2c(c1OCc1ccccc1)C[C@@H](C(=O)O)N(C(=O)[C@H](OC1CCC3CC31)c1ccccc1)C2` (single isomer, unassigned) [Compound 61] as the compound, how does the pIC50 read?
A: 7.14

Q: With `COCCO[C@@H](C(=O)N1Cc2ccc(OC)c(OCc3ccccc3)c2C[C@H]1C(=O)O)c1ccccc1` [Compound 4] as the compound, how does the pIC50 read?
A: 6.08

Q: `COc1ccc2c(c1OCc1ccccc1)C[C@@H](C(=O)O)N(C(=O)[C@@H](Oc1ccc(F)cc1)c1ccccc1)C2` [Compound 31] was tested. Which pIC50 did it give?
A: 7.22
